Assay results published in the kinase profiling compilation of Christmann-Franck et al. (2016).

Legend:
Assay in all cases: radiometric filter-binding kinase assay
MAP2K1 (human) = MAP2K1 (human) (UniProt Q02750)
PRKCA (human) = PRKCA (human) (UniProt P17252)
PAK7 (human) = PAK7 (human) (UniProt Q9P286)
MAPKAPK2 (human) = MAPKAPK2 (human) (UniProt P49137)
LCK (mouse) = conditions: accession and sequence are those of the human protein
MST4 (human) = MST4 (human) (UniProt Q9P289)
PRKAA1 or PRKAA2 (rat) = conditions: accession and sequence are those of the human protein
PHKG1 (human) = PHKG1 (human) (UniProt Q16816)
Chain of PHKG1 (human) (Q16816 whole entry, looked up): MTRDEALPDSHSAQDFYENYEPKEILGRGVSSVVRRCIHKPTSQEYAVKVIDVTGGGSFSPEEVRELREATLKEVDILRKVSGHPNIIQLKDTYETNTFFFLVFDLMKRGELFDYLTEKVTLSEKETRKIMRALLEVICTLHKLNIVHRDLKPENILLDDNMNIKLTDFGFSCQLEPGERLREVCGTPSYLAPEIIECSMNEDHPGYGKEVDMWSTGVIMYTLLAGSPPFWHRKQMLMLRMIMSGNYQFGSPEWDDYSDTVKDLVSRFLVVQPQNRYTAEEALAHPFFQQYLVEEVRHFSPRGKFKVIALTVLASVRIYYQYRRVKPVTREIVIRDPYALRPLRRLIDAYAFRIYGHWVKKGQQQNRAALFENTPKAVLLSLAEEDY

CSK (human) = CSK (human) (UniProt P41240)
PRKACA (human) = PRKACA (human) (UniProt P17612)
EPHA2 (human) = EPHA2 (human) (UniProt P29317)
NEK2 (human) = NEK2 (human) (UniProt P51955)
Chain of NEK2 (human) (P51955 whole entry, looked up): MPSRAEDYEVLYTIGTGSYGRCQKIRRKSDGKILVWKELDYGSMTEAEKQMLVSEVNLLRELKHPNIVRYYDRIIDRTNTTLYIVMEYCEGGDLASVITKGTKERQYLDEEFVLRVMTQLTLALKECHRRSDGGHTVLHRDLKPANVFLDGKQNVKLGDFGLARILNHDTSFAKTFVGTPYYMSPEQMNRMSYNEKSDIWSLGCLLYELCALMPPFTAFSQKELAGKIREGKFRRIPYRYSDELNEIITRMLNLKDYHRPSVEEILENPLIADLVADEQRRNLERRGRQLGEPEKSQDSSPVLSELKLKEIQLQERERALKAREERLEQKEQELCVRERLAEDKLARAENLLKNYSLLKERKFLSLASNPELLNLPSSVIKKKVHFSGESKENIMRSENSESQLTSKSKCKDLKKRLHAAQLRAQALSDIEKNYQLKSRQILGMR

CAMKK2 (human) = CAMKK2 (human) (UniProt Q96RR4)
CDK2 CCNA2 (human) = CDK2 CCNA2 (human) (UniProt P20248+P24941)
CaMK1 (human) = CaMK1 (human) (UniProt Q14012)
Chain of CaMK1 (human) (Q14012 whole entry, looked up): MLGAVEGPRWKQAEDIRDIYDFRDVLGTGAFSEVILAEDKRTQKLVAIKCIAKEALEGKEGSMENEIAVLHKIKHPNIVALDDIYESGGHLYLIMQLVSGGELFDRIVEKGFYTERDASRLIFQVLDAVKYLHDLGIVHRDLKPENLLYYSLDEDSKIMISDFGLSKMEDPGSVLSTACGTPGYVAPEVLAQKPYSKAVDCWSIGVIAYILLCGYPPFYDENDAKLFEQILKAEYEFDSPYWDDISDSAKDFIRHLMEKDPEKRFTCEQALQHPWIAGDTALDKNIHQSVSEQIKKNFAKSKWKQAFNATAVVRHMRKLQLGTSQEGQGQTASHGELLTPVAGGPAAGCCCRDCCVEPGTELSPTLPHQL

MAPK15 (human) = MAPK15 (human) (UniProt Q8TD08)
Chain of MAPK15 (human) (Q8TD08 whole entry, looked up): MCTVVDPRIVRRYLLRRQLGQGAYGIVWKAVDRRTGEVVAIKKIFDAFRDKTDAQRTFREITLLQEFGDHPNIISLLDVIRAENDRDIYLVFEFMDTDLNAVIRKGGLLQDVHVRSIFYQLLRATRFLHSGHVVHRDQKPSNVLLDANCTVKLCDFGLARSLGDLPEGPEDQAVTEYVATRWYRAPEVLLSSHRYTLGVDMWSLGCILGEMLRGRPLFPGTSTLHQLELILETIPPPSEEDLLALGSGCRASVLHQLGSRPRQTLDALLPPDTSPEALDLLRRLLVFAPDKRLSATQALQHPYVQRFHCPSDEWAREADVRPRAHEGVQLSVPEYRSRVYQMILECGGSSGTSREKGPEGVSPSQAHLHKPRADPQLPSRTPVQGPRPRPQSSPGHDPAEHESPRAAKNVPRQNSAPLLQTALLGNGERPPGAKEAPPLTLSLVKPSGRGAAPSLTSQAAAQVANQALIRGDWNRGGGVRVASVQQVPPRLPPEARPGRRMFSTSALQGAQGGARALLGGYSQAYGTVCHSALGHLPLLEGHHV

INSR (human) = INSR (human) (UniProt P06213)
RPS6KA5 KD1 KD2 (human) = RPS6KA5 KD1 KD2 (human) (UniProt O75582)
Chain of RPS6KA5 KD1 KD2 (human) (O75582 whole entry, looked up): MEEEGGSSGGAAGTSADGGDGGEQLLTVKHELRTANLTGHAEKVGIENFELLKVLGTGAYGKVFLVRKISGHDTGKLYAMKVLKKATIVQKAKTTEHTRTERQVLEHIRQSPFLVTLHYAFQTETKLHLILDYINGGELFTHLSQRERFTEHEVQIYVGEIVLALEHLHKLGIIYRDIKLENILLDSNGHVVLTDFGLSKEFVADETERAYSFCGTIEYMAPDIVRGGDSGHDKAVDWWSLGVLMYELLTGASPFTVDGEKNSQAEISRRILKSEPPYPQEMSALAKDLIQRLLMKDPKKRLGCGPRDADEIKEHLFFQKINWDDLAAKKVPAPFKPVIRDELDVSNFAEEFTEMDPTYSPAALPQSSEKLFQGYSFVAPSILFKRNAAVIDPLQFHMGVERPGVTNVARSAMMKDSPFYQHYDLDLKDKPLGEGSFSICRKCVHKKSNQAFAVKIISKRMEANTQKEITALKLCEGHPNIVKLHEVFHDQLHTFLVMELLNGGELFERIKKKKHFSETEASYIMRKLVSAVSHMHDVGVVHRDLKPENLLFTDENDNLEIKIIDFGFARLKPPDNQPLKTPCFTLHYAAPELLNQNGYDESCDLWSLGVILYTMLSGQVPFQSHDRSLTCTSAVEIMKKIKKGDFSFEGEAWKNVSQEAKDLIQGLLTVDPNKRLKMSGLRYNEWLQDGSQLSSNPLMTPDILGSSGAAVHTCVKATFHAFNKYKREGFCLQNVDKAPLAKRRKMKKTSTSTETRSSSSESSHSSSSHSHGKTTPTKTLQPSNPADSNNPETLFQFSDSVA

NEK6 (human) = NEK6 (human) (UniProt Q9HC98)
Chain of NEK6 (human) (Q9HC98 whole entry, looked up): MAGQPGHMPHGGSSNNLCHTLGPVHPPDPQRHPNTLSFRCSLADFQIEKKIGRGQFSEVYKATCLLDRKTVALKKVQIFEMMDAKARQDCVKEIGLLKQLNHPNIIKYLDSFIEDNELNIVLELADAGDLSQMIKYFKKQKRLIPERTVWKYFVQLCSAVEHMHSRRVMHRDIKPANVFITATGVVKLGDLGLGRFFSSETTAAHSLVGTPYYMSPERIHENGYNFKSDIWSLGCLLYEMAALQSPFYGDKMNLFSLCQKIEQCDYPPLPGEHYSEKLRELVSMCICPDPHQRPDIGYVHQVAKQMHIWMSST

INSRR (human) = INSRR (human) (UniProt P14616)
MKNK1 (human) = MKNK1 (human) (UniProt Q9BUB5)
DYRK2 (human) = DYRK2 (human) (UniProt Q92630)
SRPK1 (human) = SRPK1 (human) (UniProt Q96SB4)
Chain of SRPK1 (human) (Q96SB4 whole entry, looked up): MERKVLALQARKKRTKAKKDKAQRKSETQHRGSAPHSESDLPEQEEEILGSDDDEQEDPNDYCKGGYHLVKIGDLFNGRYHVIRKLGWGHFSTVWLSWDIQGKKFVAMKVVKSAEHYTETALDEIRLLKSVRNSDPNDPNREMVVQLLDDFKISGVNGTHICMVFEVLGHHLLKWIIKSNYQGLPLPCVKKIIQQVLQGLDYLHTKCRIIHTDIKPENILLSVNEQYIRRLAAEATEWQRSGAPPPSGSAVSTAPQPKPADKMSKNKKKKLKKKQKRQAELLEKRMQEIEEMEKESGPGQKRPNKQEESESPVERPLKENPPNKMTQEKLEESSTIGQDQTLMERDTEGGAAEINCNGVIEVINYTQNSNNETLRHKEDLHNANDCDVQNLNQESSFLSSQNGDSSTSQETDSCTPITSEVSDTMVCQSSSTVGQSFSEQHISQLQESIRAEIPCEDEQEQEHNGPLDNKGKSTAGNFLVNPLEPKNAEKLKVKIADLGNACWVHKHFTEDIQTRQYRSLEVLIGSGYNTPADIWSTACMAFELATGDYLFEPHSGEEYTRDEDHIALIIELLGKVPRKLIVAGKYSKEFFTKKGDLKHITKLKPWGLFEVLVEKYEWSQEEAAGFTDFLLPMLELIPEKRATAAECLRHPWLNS

BTK (human) = BTK (human) (UniProt Q06187)
Chain of BTK (human) (Q06187 whole entry, looked up): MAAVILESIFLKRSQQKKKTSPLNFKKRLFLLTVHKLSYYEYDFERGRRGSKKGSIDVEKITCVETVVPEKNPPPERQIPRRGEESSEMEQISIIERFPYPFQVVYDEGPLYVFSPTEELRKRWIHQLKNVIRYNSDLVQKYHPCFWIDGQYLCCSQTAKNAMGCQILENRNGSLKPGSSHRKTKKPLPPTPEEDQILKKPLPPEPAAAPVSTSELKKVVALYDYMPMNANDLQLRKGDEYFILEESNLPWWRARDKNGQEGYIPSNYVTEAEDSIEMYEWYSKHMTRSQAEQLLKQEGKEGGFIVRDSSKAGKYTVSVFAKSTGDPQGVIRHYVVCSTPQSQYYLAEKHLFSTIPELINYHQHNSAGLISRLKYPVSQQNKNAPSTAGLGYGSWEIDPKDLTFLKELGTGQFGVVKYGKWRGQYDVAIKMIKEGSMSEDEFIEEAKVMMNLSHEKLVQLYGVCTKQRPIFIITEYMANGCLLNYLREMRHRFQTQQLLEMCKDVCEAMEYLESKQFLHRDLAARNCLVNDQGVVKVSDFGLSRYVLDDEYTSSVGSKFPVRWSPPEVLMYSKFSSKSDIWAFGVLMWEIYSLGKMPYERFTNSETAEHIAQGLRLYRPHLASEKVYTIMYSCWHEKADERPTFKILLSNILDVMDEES

## C/C(=C1/C(=O)Nc2ccc(NC(N)=O)cc21)c1ccc[nH]1
MAP2K1 (human); compound 0.001 µM
  residual activity: 87%
MAP2K1 (human); compound 0.01 µM
  residual activity: 33%
MAP2K1 (human); compound 0.1 µM
  residual activity: 7%
PRKCA (human); compound 0.001 µM
  residual activity: 102%
PRKCA (human); compound 0.01 µM
  residual activity: 113%
PRKCA (human); compound 0.1 µM
  residual activity: 107%
PAK7 (human); compound 0.001 µM
  residual activity: 84%
PAK7 (human); compound 0.1 µM
  residual activity: 78%
MAPKAPK2 (human); compound 0.001 µM
  residual activity: 98%
MAPKAPK2 (human); compound 0.01 µM
  residual activity: 86%
LCK (mouse); compound 0.001 µM
  residual activity: 97%
LCK (mouse); compound 0.01 µM
  residual activity: 95%
LCK (mouse); compound 0.1 µM
  residual activity: 64%
MST4 (human); compound 0.001 µM
  residual activity: 87%
MST4 (human); compound 0.01 µM
  residual activity: 80%
PRKAA1 or PRKAA2 (rat); compound 0.001 µM
  residual activity: 62%
PRKAA1 or PRKAA2 (rat); compound 0.01 µM
  residual activity: 25%
PRKAA1 or PRKAA2 (rat); compound 0.1 µM
  residual activity: 7%
PHKG1 (human); compound 0.001 µM
  residual activity: 97%
PHKG1 (human); compound 0.01 µM
  residual activity: 66%
PHKG1 (human); compound 0.1 µM
  residual activity: 18%
CSK (human); compound 0.01 µM
  residual activity: 97%
CSK (human); compound 0.1 µM
  residual activity: 102%
PRKACA (human); compound 0.001 µM
  residual activity: 92%
PRKACA (human); compound 0.01 µM
  residual activity: 87%
PRKACA (human); compound 0.1 µM
  residual activity: 81%
EPHA2 (human); compound 0.001 µM
  residual activity: 97%
EPHA2 (human); compound 0.01 µM
  residual activity: 101%
EPHA2 (human); compound 0.1 µM
  residual activity: 87%
NEK2 (human); compound 0.001 µM
  residual activity: 92%
NEK2 (human); compound 0.01 µM
  residual activity: 92%
NEK2 (human); compound 0.1 µM
  residual activity: 86%
CAMKK2 (human); compound 0.001 µM
  residual activity: 101%
CAMKK2 (human); compound 0.01 µM
  residual activity: 90%
CAMKK2 (human); compound 0.1 µM
  residual activity: 60%
CDK2 CCNA2 (human); compound 0.001 µM
  residual activity: 102%
CDK2 CCNA2 (human); compound 0.01 µM
  residual activity: 87%
CDK2 CCNA2 (human); compound 0.1 µM
  residual activity: 85%
CaMK1 (human); compound 0.001 µM
  residual activity: 104%
CaMK1 (human); compound 0.01 µM
  residual activity: 116%
CaMK1 (human); compound 0.1 µM
  residual activity: 103%
MAPK15 (human); compound 0.001 µM
  residual activity: 85%
MAPK15 (human); compound 0.01 µM
  residual activity: 49%
MAPK15 (human); compound 0.1 µM
  residual activity: 7%
INSR (human); compound 0.01 µM
  residual activity: 102%
INSR (human); compound 0.1 µM
  residual activity: 110%
RPS6KA5 KD1 KD2 (human); compound 0.001 µM
  residual activity: 83%
RPS6KA5 KD1 KD2 (human); compound 0.01 µM
  residual activity: 87%
RPS6KA5 KD1 KD2 (human); compound 0.1 µM
  residual activity: 80%
NEK6 (human); compound 0.001 µM
  residual activity: 86%
NEK6 (human); compound 0.01 µM
  residual activity: 84%
NEK6 (human); compound 0.1 µM
  residual activity: 82%
INSRR (human); compound 0.001 µM
  residual activity: 91%
INSRR (human); compound 0.01 µM
  residual activity: 75%
INSRR (human); compound 0.1 µM
  residual activity: 47%
MKNK1 (human); compound 0.001 µM
  residual activity: 92%
MKNK1 (human); compound 0.01 µM
  residual activity: 87%
MKNK1 (human); compound 0.1 µM
  residual activity: 82%
DYRK2 (human); compound 0.001 µM
  residual activity: 88%
DYRK2 (human); compound 0.01 µM
  residual activity: 59%
DYRK2 (human); compound 0.1 µM
  residual activity: 18%
SRPK1 (human); compound 0.001 µM
  residual activity: 98%
SRPK1 (human); compound 0.01 µM
  residual activity: 96%
SRPK1 (human); compound 0.1 µM
  residual activity: 93%
BTK (human); compound 0.001 µM
  residual activity: 95%
BTK (human); compound 0.01 µM
  residual activity: 85%
BTK (human); compound 0.1 µM
  residual activity: 93%
